In article PMC8743659, “C1632 suppresses the migration and proliferation of non‐small‐cell lung cancer cells involving LIN28 and FGFR1 pathway” (Journal of Cellular and Molecular Medicine, 2021):

Experiments:
Assay in all cases: Microsomal incubation (cocktail) assay, rat liver microsomes
Assay type in all cases: in vitro ADME
[1] = target: T1, CYP3A2 (Rattus norvegicus, UniProt P05183); conditions: 100 μM C1632, probe 5 μM midazolam, 30 min, 37°C
T1 construct: 3.4 mg/ml pooled rat liver microsomes; from tissue; host or cells: pooled rat liver microsomes
T1 sequence (P05183 1-504): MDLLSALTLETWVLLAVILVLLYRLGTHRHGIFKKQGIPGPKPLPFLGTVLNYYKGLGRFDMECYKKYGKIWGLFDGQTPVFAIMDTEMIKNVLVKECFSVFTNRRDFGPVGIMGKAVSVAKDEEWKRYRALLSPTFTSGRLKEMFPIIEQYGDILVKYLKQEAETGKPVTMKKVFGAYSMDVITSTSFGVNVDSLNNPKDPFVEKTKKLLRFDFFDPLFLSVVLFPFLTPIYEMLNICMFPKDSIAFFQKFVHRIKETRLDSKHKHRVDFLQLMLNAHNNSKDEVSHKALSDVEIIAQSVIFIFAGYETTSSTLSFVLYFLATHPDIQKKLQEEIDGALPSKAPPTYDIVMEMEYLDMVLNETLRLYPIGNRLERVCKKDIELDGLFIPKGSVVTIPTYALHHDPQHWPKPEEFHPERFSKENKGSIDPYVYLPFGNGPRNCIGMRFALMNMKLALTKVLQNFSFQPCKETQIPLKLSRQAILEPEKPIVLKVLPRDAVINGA
Description: (§1) The microsomal incubation assay[41] was performed at 37°C in a 200 μl incubation system, which consisted of 3.4 mg/ml pooled rat liver microsomes, 100 μM C1632, and probe substrates (5 μM CYP3A2‐midazolam; 10 μM CYP2D1‐dextromethorphan; 250 μM CYP2C11‐tolbutamide; 10 μM CYP2B1‐bupropion; and 0.1 M Tris–HCl [pH 7.4]). After 5 min of incubation, 1 mM NADPH was added, and the assay was terminated after 30 min by cooling at −80°C. Next, 0.2 ml acetonitrile and 20 μl IS (100 ng/ml) were added to the reactant. Finally, the solution was thoroughly vortexed and centrifuged at 12,000 rpm for 10 min. The supernatant was analysed by UHPLC‐MS/MS.[42]

[2] = target: T2, CYP2D1 (Rattus norvegicus, UniProt P10633); conditions: 100 μM C1632, probe 10 μM dextromethorphan, 30 min, 37°C
T2 construct: 3.4 mg/ml pooled rat liver microsomes; from tissue; host or cells: pooled rat liver microsomes
T2 sequence (P10633 1-504): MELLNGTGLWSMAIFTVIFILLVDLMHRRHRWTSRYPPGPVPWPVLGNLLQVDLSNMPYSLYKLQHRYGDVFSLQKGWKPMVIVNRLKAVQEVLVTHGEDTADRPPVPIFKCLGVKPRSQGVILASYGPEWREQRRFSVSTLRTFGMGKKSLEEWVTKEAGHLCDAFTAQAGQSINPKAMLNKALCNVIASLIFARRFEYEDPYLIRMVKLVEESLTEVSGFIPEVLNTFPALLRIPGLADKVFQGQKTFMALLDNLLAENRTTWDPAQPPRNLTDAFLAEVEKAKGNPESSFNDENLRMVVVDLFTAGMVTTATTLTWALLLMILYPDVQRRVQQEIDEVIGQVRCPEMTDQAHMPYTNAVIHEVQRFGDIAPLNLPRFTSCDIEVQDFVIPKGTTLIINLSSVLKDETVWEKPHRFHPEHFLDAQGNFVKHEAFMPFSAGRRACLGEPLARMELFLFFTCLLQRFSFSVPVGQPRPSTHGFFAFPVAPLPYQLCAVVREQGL
Description: as §1

[3] = target: T3, CYP2B1 (Rattus norvegicus, UniProt P00176); conditions: 100 μM C1632, probe 10 μM bupropion, 30 min, 37°C
T3 construct: 3.4 mg/ml pooled rat liver microsomes; from tissue; host or cells: pooled rat liver microsomes
T3 sequence (P00176 1-491): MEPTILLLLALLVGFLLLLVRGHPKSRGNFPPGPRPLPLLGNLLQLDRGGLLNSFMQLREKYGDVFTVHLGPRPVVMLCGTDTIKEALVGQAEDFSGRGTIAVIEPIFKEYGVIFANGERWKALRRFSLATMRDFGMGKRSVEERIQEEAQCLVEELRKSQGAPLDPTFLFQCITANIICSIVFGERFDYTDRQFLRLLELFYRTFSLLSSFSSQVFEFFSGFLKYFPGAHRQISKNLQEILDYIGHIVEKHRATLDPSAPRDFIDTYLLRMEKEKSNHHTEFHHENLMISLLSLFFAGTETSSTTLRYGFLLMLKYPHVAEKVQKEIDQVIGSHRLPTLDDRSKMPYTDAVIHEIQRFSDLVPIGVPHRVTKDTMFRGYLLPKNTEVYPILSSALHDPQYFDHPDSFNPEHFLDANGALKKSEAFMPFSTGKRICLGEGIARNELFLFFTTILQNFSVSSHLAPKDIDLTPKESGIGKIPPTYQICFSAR
Description: as §1

[4] = target: T4, CYP2C11 (Rattus norvegicus, UniProt P08683); conditions: 100 μM C1632, probe 250 μM tolbutamide, 30 min, 37°C
T4 construct: 3.4 mg/ml pooled rat liver microsomes; from tissue; host or cells: pooled rat liver microsomes
T4 sequence (P08683 1-500): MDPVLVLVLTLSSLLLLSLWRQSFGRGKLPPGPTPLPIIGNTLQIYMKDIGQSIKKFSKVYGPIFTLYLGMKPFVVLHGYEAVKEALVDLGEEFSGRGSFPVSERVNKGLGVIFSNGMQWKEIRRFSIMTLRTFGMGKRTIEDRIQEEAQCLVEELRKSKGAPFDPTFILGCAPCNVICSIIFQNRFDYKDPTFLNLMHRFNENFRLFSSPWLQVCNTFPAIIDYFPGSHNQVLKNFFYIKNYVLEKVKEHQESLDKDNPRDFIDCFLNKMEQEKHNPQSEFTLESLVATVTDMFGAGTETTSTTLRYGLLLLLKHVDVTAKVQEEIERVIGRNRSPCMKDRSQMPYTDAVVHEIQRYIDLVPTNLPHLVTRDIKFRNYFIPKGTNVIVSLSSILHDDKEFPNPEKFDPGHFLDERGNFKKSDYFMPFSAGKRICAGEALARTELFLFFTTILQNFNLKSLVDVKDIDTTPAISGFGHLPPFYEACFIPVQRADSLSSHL
Description: as §1

CC(=O)N(C)c1cccc(-c2ccc3nnc(C)n3n2)c1 [C1632]
significantly inhibit: effect on CYP3A2 activity [1] | effect on CYP2D1 activity [2] | effect on CYP2B1 activity [3] | effect on CYP2C11 activity [4]
